“Also recorded” adds a separate entry of the source.
How the values were obtained:
MCF-7/ADR cells [1] = assay: Organelle-specific pH measurements with targeted SNARF and FITC probes in living cells; assay type: cell-based, human
Experimental: Organelle-specific pH measurements: The pH was measured in selective cellular compartments by targeting ratiometric pH probes to specific organelles. […] Using a Nikon epifluorescence microscope with a intensified CCD camera, the pH probe FITC was excited alternately at 450 nm and 490 nm and emission recorded with a 520/10 bandpass filter. […] In short, to calibrate the pH for the endosomal system, the chamber was perfused with 150 mM sodium buffers at pH of 5, 6 or 7 containing of monensin (20 μM) and nigericin (10 μM) for 5 minutes before recording the fluorescence. For the pH calibrations of cytosol and nucleoplasm, the cells were incubated in 140 mM potassium buffers at pH 6.0, 6.5, 7.0 and 7.5 containing nigericin (20 μM).
After endocytosis, the transferrin is transported through the endosomes and then recycled back to the surface without passage through the lysosomes.
pH in the lysosomes: The pH in the lysosomes was assayed both with light and electron microscopy. […] The pH was calibrated as described above. […] The cells were incubated one hour at room temperature, washed with several changes of PBS pH 7.4 containing 50 mM NH4Cl. […] The cells were embedded in LR White in gelatin capsules and baked at 60° C. for 24 hours in a vacuum oven, sectioned and incubated overnight at 4° C. with anti-DNP antibodies in 4% FBS, washed and incubated in gold (10 nm) labeled secondary antibodies for 2 hours. They were then stained and visualized under the electron microscope.
Cells were plated on polystyrene plates at 50% confluency. Twenty-four to thirty-six hours later, the medium was aspirated and the cells were covered with 50 μl of DME with SNARF-dextran (10 mg/ml). The cells were quickly scraped off the polystyrene and placed in pre-chilled tubes containing 1 ml DME without serum. The cells were harvested (100 g for 5 minutes), washed twice with pre-chilled DME, and plated on Lab-Tek chambers in DME with serum. The cells were allowed to recover for 24 hours prior to examination on a confocal microscope. The pH was calibrated from SNARF fluorescence as described above.
pH in the nucleus: The nucleoplasmic pH was probed by loading the cytosol with SNARF conjugated to a 10 kD dextran. This dextran is too large to cross cellular membranes, but can enter the nucleoplasm by diffusion across the nuclear pores. Confocal fluorescence microscopy was used to prepare optical sections through the cell allowing the fluorescence intensity of the nucleoplasm and cytoplasm to be quantified. The 10 kD SNARF-dextran was loaded into the cytosol and imaged using the same techniques for the 70 kD SNARF-dextrans (see above).

MCF-7/ADR cells [2] = assay: Lysosomal acidification by DAMP immuno-electron microscopy; assay type: cell-based, human; parameters: dose or concentration left out as unconfirmed; conditions: MCF-7/ADR cells treated prior to DAMP
Experimental: pH in the lysosomes: The pH in the lysosomes was assayed both with light and electron microscopy. Light microscopy: […] Cell Biol., 105:2723-2733 (1987)]. The pH was calibrated as described above. Electron microscopy: The cells were incubated with the weak base DAMP, fixed, probed with an mouse antibody to DNP (cross-reacts with DAMP) and visualized with gold-conjugated anti-mouse antibodies. […] Then DAMP was added to a final concentration of at 70 μM and the cells were incubated for another 45 minutes. The medium was replaced with phosphate buffered saline (PBS), pH 7.4, with 4% paraformaldehyde and 0.75% gluteraldehyde. […] They were then stained and visualized under the electron microscope.

[3] = tested on: isolated microsomes of MCF-7/ADR cells; assay: In vitro acidification of total microsomal preparation (acridine orange quenching)
Experimental: Acidification of Cellular Microsomes: The acidification of cellular microsomes was assayed spectrophotometrically. Two different approaches were used for assaying acidification: Acidification of the total microsomal preparation using quenching of acridine orange and acidification of the recycling endosomes by monitoring the fluorescence from a microsomal preparation from cells that had previously endocytosed FITC-transferrin.
The homogenate was centrifuged twice for 10 minutes at 3000 g to remove unbroken cells and nuclei. The supernatant was layered over 20 ml of 0.5 M sucrose (20 mM HERES (pH 7.4), 1 mM DTT, 1 mM EDTA, 1×protease inhibitor mix) and 1 ml of 2 M sucrose and centrifuged for one hour at 100,000 g (Beckman Ti60 Rotor). Microsomes are collected at the 0.5 M and 2 M interface.
Acidic vesicles accumulate acridine orange to high concentrations resulting in the self quenching of the dye. This accumulation causes depletion of the acridine orange from the extra-vesicular space, and a decrease of the overall fluorescence of the sample. […] The sample was allowed to equilibrate by stirring for 30 minutes at 25° C. After 5 minutes of recording to establish baseline, 1 mM Tris-ATP was added to begin acidification (100 mM stock, titrated to pH 7.4 with 1 M Tris-base before use).

MCF-7/ADR cells [4] = assay: Acridine orange labeling of acidic compartments (confocal microscopy); assay type: cell-based, human; conditions: for red-orange acridine orange fluorescence of cytoplasmic organelles after addition of agent: MCF-7/ADR, 30 minutes, Monensin 5 μM, Bafilomycin A1 500 nM, concanomycin 100 nM, Tamoxifen 5 or 10 μM, verapamil 10 μM, cyclosporin A 10 μM
Experimental: Confocal fluorescence imaging of intracellular pH and acidic compartments: Acridine orange (2 μg/ml media; 4 mg/ml stock in water) was added directly to the chambers and the cells were incubated with the dye at 37° C. for 30 minutes. Cells in the presence of acridine orange were then examined at room temperature with an Insight Bilateral Laser Scanning Confocal Microscope (Meridian Instruments, Okemos, Mich.). […] Optical sections of the fluorescent sample were recorded at 0.5 micron intervals. […] The acetoxymethylester derivative of SNAFL-calcein (15 μg/ml) (Molecular Probes, Eugene, Oreg.) (a radiometric fluorescent probe for pH) was added to both MCF-7 and MCF-7adr cells. The ester linked fluorescent probe enters the cell passively where the esters are hydrolyzed by esterases located in the cytoplasm and intracellular vesicles. The SNAFL-calcein is then ionically trapped within the cytoplasm and vesicular compartments. […] These images were then compared to standard curves that were obtained in the following manner. […] Cells treated with monensin were exposed to the drug (10 μg/ml of media) for 30 minutes at 37° C. prior to labeling with SNAFL-calcein as described above. All cells were examined at room temperature.
The green and red emissions were collected using two photomultiplier tubes. […] Green emission was next passed through a 530 nm/30 nm bandpass filter and collected by the on-axis photomultiplier tube. Red emission was passed through a 610 nm longpass filter and collected by the 90° side photomultiplier tube.
Optical sections of the fluorescent samples were recorded at 0.5 micron intervals with a 60×oil immersion objective.

MCF-7/ADR cells [5] = assay: Cell viability assay of Adriamycin sensitivity (Hoechst 33258 DNA content); conditions: for effect on sensitivity of drug-resistant cells to Adriamycin: MCF-7/ADR (MCF-7adr) cells, agent co-incubated with adriamycin for 6 hours
Experimental: After 6 hours, the media was removed, the cells rinsed, and then fed with fresh media not containing drugs. […] Media was aspirated and the wells rinsed with Hanks Balanced Salt Solution (HBSS, phenol red free). The cells were sonicated in hypotonic media (0.1×HBSS) for 30 seconds. […] Calf thymus DNA was used for calibration.
Cell viability assays: The media was removed 60 hr. after plating the cells and replaced with fresh media supplemented with various concentrations of adriamycin (Calbiochem, CA) and monensin (solubilized in DMF 0.1%) (Sigma, St. Louis). After 6 hr the media was removed, the cells rinsed, and then fed with fresh media not containing drugs. […] Media was aspirated and the wells rinsed with Hanks Balanced Salt Solution (HBSS, phenol red free). The cells were sonicated in hypotonic media (0.1×HBSS) for 30 seconds. […] Calf thymus DNA was used for calibration.
Cell Viability Assays: Cell viability was assayed by plating cells at ˜1000 cells/well in 24 well plates (Falcon) in DME. […] The cells were fed daily for three days and then cell viability was quantified with two independent techniques: an assay of total DNA and an assay of volume of viable cells. […] Calf thymus DNA was used for calibration.
After three days cell viability was assayed.

Structure (SMILES): CC[C@@]1([C@@H]2O[C@@H]([C@H]3O[C@@](O)(CO)[C@H](C)C[C@@H]3C)C[C@@H]2C)CC[C@H]([C@]2(C)CC[C@]3(C[C@H](O)[C@@H](C)[C@@H]([C@@H](C)[C@@H](OC)[C@H](C)C(=O)O)O3)O2)O1 [Monensin]
- shift of cytosolic pH, more alkaline (MCF-7/ADR cells [1]; MCF-7/ADR cells, SNARF 70 kD dextran, Tamoxifen at 10 μM): 0.2 units
- average density of gold particles (anti-DNP labeling of DAMP) per lysosomal area (MCF-7/ADR cells [2]): zero
- acidification of pre-treated microsomes ([3]; Tamoxifen 8 μM, Bafilomycin A1 10 nM, monensin concentration not given): inhibited acidification
- rate of dissipation of the pre-existing pH gradient ([3]; added 10 minutes after ATP, Bafilomycin A1 100 nM, compared with tamoxifen): significantly faster than tamoxifen
- red-orange acridine orange fluorescence of cytoplasmic organelles after addition of agent (MCF-7/ADR cells [4]): loss of the red-orange fluorescence
- red-orange acridine orange fluorescence of cytoplasmic organelles after addition of agent (MCF-7/ADR cells [4]; listed as monensin): did not exhibit the red spectral shift within the vesicles
- effect on sensitivity of drug-resistant cells to Adriamycin (MCF-7/ADR cells [5]): increased the drug sensitivity of the MCF-7adr cells to the level observed for drug-sensitive cells

Structure (SMILES): CC/C(=C(\c1ccccc1)c1ccc(OCCN(C)C)cc1)c1ccccc1 [Tamoxifen]
- change with Tamoxifen, pH Lysosomes SNARF-conjugated dextran (MCF-7/ADR cells [1]; MCF-7/ADR): >+1.1
- change with Tamoxifen, pH Recycling endosomes FITC-conjugated transferrin (MCF-7/ADR cells [1]; MCF-7/ADR): +0.5
- change with Tamoxifen, pH lysosomes FITC conjugated dextran (MCF-7/ADR cells [1]; MCF-7/ADR): >+1.2
- pH Cytosol (SNARF 70 kD dextran) (MCF-7/ADR cells [1]; MCF-7/ADR + Tamoxifen (10 μM)): 7.20 ± 0.1
- pH Lysosomes SNARF-conjugated dextran (MCF-7/ADR cells [1]; MCF-7/ADR + Tamoxifen (10 μM)): 7.1
- pH Nucleus (SNARF 10 kD dextran) (MCF-7/ADR cells [1]; MCF-7/ADR + Tamoxifen (10 μM)): 7.20 ± 0.1
- pH Recycling endosomes FITC-conjugated transferrin (MCF-7/ADR cells [1]; MCF-7/ADR + Tamoxifen (10 μM)): 6.7 ± 0.2
- pH lysosomes FITC conjugated dextran (MCF-7/ADR cells [1]; MCF-7/ADR + Tamoxifen (10 μM), FITC cannot discriminate pH above 6.6): > 6.6
- pH Recycling endosomes FITC-conjugated transferrin (MCF-7/ADR cells [1]; MCF-7/ADR + Tamoxifen (10 μM), listed as tamoxifen): 6.7
- average density of gold particles (anti-DNP labeling of DAMP) per lysosomal area (MCF-7/ADR cells [2]): 2.0 /μm^2
- time to almost complete dissipation of the pre-existing pH gradient ([3]; 8 μM Tamoxifen added 10 minutes after Tris-ATP): ≤ 5 minutes
- red-orange acridine orange fluorescence of cytoplasmic organelles after addition of agent (MCF-7/ADR cells [4]): loss of the red-orange cytoplasmic fluorescence
- red-orange acridine orange fluorescence of cytoplasmic organelles after addition of agent (MCF-7/ADR cells [4]; listed as tamoxifen): steady decrease of the red acridine orange fluorescence
- acridine orange staining of acidic vesicles after treatment (MCF-7/ADR cells [4]; MCF-7adr (Examples 2, 3), nigericin 7.5 μM, tamoxifen 50 μM): loss of acridine orange staining within the pericentriolar region
- cell death (MCF-7/ADR cells [5]; 1 μM Adriamycin in the presence of 5 μM Tamoxifen, 6 hours exposure, assayed after three days): 95%
- cell viability in the absence of Adriamycin (MCF-7/ADR cells [5]; 5 μM Tamoxifen alone): no decrease in viability; also recorded: little effect on cell viability
- effect on sensitivity of drug-resistant cells to Adriamycin (MCF-7/ADR cells [5]): substantially increased the sensitivity of the cells to Adriamycin
- effect on sensitivity of drug-resistant cells to Adriamycin (MCF-7/ADR cells [5]; listed as tamoxifen): significantly enhanced sensitivity to adriamycin

— US20020042079A1, “METHODS AND AGENTS FOR MEASURING AND CONTROLLING MULTIDRUG RESISTANCE” (priority 1994, published 2002)
